# Results: patent US9283277B2, “Methods and compositions for the treatment of obesity” (Children's Medical Center Corporation, priority 2008, dated 2016)
# Tests used:
# [1] = tested on: ob/ob mice; experiment: TUDCA pretreatment and leptin in ob/ob mice (bodyweight, metabolic cage, DEXA); type: in vivo
# Protocol: (a) Hypothalamic PERK phosphorylation (Thr980) after 21 days of vehicle or TUDCA (150 mg/kg/day) treatment. Following a five-day pretreatment with TUDCA (150 mg/kg/day) or vehicle, nine-ten week old ob/ob mice were treated either with leptin (1 mg/kg/day) or vehicle. (b) Body weight (g), (c) % decrease in body weight, (d) daily food intake of the ob/ob mice during 18 days of treatment period with the indicated regimens. (e) Blood glucose (mg/dl) levels at the 18th day of treatment. Metabolic cage studies were performed; (f) CO2 production (ml/kg/hr), (g) O2 consumption (ml/kg/hr), (h) Respiratory exchange ratio (VCO2/VO2), (i) X-axis ambulatory activity, (j) Heat generation (kcal/hr). Dexa scan analysis of (k) total fat amount (g), (l) fat % and (m) lean body mass (g). C57BL/6 male wt mice were kept on HFD feeding for 32 weeks and following a five day acclimation period were pretreated with TUDCA (150 mg/kg/day) for five days. At the end of pretreatment period intraperitoneal vehicle and leptin (1 mg/kg/day) treatments were started. (n) Body weight (g), (o) % decrease in bodyweight of the HFD-fed mice during the 16-day treatment. (n=6 for VEH, n=7 for Lep, n=7 for TUD, n=8 for TUD+Lep group). Error bars are ±S.E.M., P values are determined by Student's t-test. (*p<0.05, **p<0.01, ***p<0.001)
# If the postulate that reduction of ER stress in the hypothalamus increases leptin sensitivity is true, chemical chaperones other than PBA should also create the same effect and sensitize the obese mice to leptin. TUDCA is a hydrophilic bile acid, which has a completely different structure than PBA, but has chemical chaperone activity in common^25. First, we investigated whether TUDCA can reduce ER stress in the hypothalamus of the ob/ob mice. For this purpose we treated ob/ob mice either with vehicle or TUDCA (150 mg/kg/day) for a period of 21 days and analyzed the hypothalamic PERK phosphorylation. […] To address this question we first pretreated the ob/ob mice with TUDCA (150 mg/kg/day) for 5 days and subsequently initiated leptin (1 mg/kg) treatment. […] Body weight of the ob/ob mice decreased further with leptin and TUDCA co-treatment and reached to 34.39±1.30 g from 50.55±1.14 g (Lep vs. TUD+Lep, p<0.001). […] Furthermore, to investigate the metabolic homeostasis in more detail, we placed the mice in metabolic cages. […] Heat generation was the same between the groups (FIG. 5j). Next, we analyzed the whole body fat composition by DEXA scan. […] Finally, analysis of lean mass has shown that none of the treatments lead to a significant change in this parameter ([…]). We additionally investigated the effect of TUDCA and leptin co-treatment on C57BL/6 wt-lean mice.
# We next tested the efficacy of TUDCA as a leptin sensitizer in the HFD-induced obesity model. In this experiment we used 35 weeks old and C57BL/6 wt mice, which were kept on HFD-feeding for 32 weeks. We divided the mice into two groups for TUDCA and TUDCA-leptin co-treatment. Body weight of the mice in this cohort was between 35-52 g. We specifically chose the mice with the highest bodyweight for TUDCA and leptin co-treatment group to investigate whether leptin will become effective in these severely obese mice when administered along with the TUDCA. The initial body weight of the TUDCA group was 38.33±1.16 (g) and TUDCA+leptin group was 48.46±1.82 (g) (FIG. 5n). […]
# [2] = tested on: ob/ob mice; experiment: PBA pretreatment and leptin administration in ob/ob mice; type: in vivo; conditions: for initial body weight: vehicle or PBA pretreated
# Protocol: Nine-week old lean wt and ob/ob mice were orally treated with either PBA (1 g/kg/day) or vehicle (VEH) for 26 days and PERK (Thr980) phosphorylation is examined in the hypothalamus extracts with direct immunoblotting. (B) Ten week-old wt lean and ob/ob mice were intraperitoneally injected with leptin (0.1 mg/kg) after six-hour starvation. Hypothalami were removed 30 minutes after the injections, and pStat3^Tyr705 and total Stat3 levels were examined. (C) Nine-week old lean wt and ob/ob mice were orally treated with PBA (1 g/kg/day) for 10 days. Following the pretreatment period, leptin-deficient ob/ob mice were either administered with VEH or with different doses of leptin through the intraperitoneal route. The effect of VEH or PBA administration on (C) bodyweight (g), (D) percent decrease in bodyweight and (E) 24-hour food intake (n=3 for VEH and n=4 PBA-treated group). Effect of 5 mg/kg/day leptin administration on (F) bodyweight, (G) percent decrease in bodyweight and (H) 24-hour food intake in VEH- or PBA-treated ob/ob mice (n=3 for VEH and n=4 PBA-treated group). Analysis of the same parameters (body weight, percent decrease in bodyweight and 24-hour food intake) in (I, J, K) 1 mg/kg/day and (L, M, N) 0.1 mg/kg/day leptin-treated mice (n=3 for VEH and n=4 PBA-treated group). Data presented as means±SEM (*p<0.05, **p<0.01, ***p<0.001).
# To test whether reduction of ER stress will increase leptin sensitivity of the ob/ob mice, we orally administered PBA or vehicle for 10 days as a pretreatment. Following this period, daily leptin injections (IP) were given at doses ranging from 0.01 mg/kg/day to 5 mg/kg/day. […]
# [3] = oral PBA 1 g/kg/day alone vs vehicle
# [4] = leptin 1 mg/kg/day IP, vehicle or PBA (1 g/kg/day) pretreated
# [5] = leptin 5 mg/kg/day IP, 16 days, vehicle or PBA (1 g/kg/day) pretreated
compound,measurement,setting,value
"C[C@H](CCC(=O)NCCS(=O)(=O)O)[C@H]1CC[C@H]2[C@@H]3[C@@H](O)C[C@@H]4C[C@H](O)CC[C@]4(C)[C@H]3CC[C@]12C [TUDCA, tauroursodeoxycholic acid]",blood glucose levels,"[1]; 18th day of treatment, TUDCA 150 mg/kg/day, leptin 1 mg/kg/day",lowered
same,body weight,[1]; TUDCA 150 mg/kg/day alone,did not decrease
"O=C(O)CCCc1ccccc1 [PBA, 4-phenyl butyric acid]",leptin sensitization,[2]; PBA + 0.1 mg/kg/day leptin gives weight loss equivalent to 1 mg/kg/day leptin alone,ten-fold
same,body weight,[2]; [3],did not affect
same,food consumption,[2]; [3],did not affect
leptin: adipocyte-derived hormone that suppresses appetite,initial body weight,[2]; before leptin 1 mg/kg/day,57.10 ± 0.58 g
same,initial body weight,[2]; before leptin 5 mg/kg/day,56 ± 1.16 g
same,effect on body weight,[2]; leptin 0.1 mg/kg/day IP alone (vehicle pretreated),did not significantly reduce
same,body weight after treatment,[2]; [4],46.61 ± 0.52 g
same,decrease in bodyweight,[2]; [4],17.73%
same,food intake,[2]; leptin 5 mg/kg/day IP after 10 days vehicle or PBA (1 g/kg/day) pretreatment,significantly inhibited
same,body weight after treatment,[2]; [5],41.13 ± 2.35 g
same,decrease in bodyweight from the initial weight,[2]; [5],27.33±2.65%
same,initial body weight,"[1]; before leptin 1 mg/kg, with or without TUDCA 150 mg/kg/day",50.50 ± 0.55 g
same,percent decrease from the initial body weight,"[1]; leptin 1 mg/kg/day, 18 days, with or without TUDCA 150 mg/kg/day",9.27±1.34%
same,body weight after treatment,"[1]; leptin 1 mg/kg/day, 18 days, with or without TUDCA 150 mg/kg/day (5 days pretreatment)",43.75 ± 0.22 g
